Data published in US11572475B2, “Carbocyanines for G-quadruplex DNA stabilization and telomerase inhibition” (GEORGIA STATE UNIVERSITY RESEARCH FOUNDATION, INC., priority 2011, dated 2023).

Legend:
Assay type in all cases: binding
[1] = test system: Human Telomere (HT) quadruplex DNA; assay: Thermal melting UV-Vis absorbance, quadruplex DNA; conditions: for Selectivity for quadruplex over duplex DNA by thermal melting: quadruplex vs duplex; for Change in Thermal Melting Points, Human Telomere (HT), 1:1: ratio 1:1 (R); for Change in Thermal Melting Points, Human Telomere (HT), 2:1: ratio 2:1 (R); for Change in Thermal Melting Points, Human Telomere (HT), 4:1: ratio 4:1 (R); for Change in Thermal Melting Points, Human Telomere (HT), 6:1: ratio 6:1 (R)
Procedure: (§1) Three DNA sequences were used: Human Telomere (HTelo), c-myc, and Duplex (Integrated DNA Technologies, San Diego, Calif.). The sequences are shown below:
The concentration of each DNA sample mixed with MilliQ water was determined by UV-Vis at 260 nm using their extinction coefficients. Quadruplexes from Human Telomere (Tel22) and c-myc were prepared by heating the corresponding oligonucleotides at 90° C. for 5 minutes in a 10 mM Tris/50 mM KCl buffer at pH 7.5 and then cooling to room temperature (to favor the intramolecular folding).
(§2) The buffer used was 10 mM Tris base (Fischer Scientific, Fairlawn, N.J.), 50 mM Potassium Chloride (Fischer Scientific, Fairlawn, N.J.), with the pH adjusted to 7.5 with Hydrochloric Acid (Fischer Scientific, Fairlawn, N.J.).
(§3) DNA folding and unfolding (melting) can be measured using absorbance at a constant wavelength of 260 nm for duplex DNA and 295 nm for quadruplex DNA while the temperature is increased, for example from 25° C. to 95° C. At these wavelengths, the resulting curves decrease in absorbance for quadruplex and increase for duplex DNA. Buffer solution and presence of DNA-binding compounds alter the Tm melting temperature, or midpoint between fully folded and unfolded. An increase in melting temperature in the presence of DNA-binding compounds indicates a stabilizing effect of the compound on the DNA structure.
(§4) The selectivity of a given cyanine for quadruplex DNA can be evaluated using thermal melting. The number in parentheses next to the compound number corresponds to the compound number in Schemes 1 and 2.
(§5) Thermal melting studies were also performed on compounds T4 and T5 (Scheme 2) and ZK-14 and SP-2-36.

Duplex DNA = assay: Thermal melting UV-Vis absorbance, duplex DNA; conditions: for Change in Thermal Melting Points, Duplex, 1:1: ratio 1:1 (R); for Change in Thermal Melting Points, Duplex, 2:1: ratio 2:1 (R); for Change in Thermal Melting Points, Duplex, 4:1: ratio 4:1 (R); for Change in Thermal Melting Points, Duplex, 6:1: ratio 6:1 (R)
Procedure: as §1, §2, §3, §4, §5

[2] = test system: Human Telomere (HT) quadruplex DNA; assay: Fluorescence titration with human telomere quadruplex; conditions: fluorescence intensity of bound ligand divided by that of free ligand
Text: (§6) Atoms absorb energy and can emit it as heat (vibrational relaxation), fast light emission (fluorescence), or slow light emission (phosphorescence). Most of the cyanines described herein fluoresce in response to near-infrared wavelengths of light absorption. As the cyanines bind to DNA, π-π stacking and hydrogen bonding is altered leading to a change in fluorescence emission. This change can be measured in direct correlation to DNA binding. In some cases an approximate binding constant can be determined from measuring fluorescence enhancement as DNA is titrated into a solution of fluorescent compound. Fluorescent enhancement, or the maximum emission divided by the minimum emission of the titration (compound saturated with DNA divided by free compound) at a fixed wavelength is useful to compare DNA affinity between a family of compounds.
(§7) A UV-Vis absorbance scan is first conducted to acquire the excitation wavelength. A 5 μM solution of compound in 1 mL, of Tris/K+ buffer is scanned from 800 nm to 200 nm at a rate of 60 nm/min with a 5 nm slit width. All DNAs are diluted in Tris/K+ buffer. The human telomere and c-Myc DNA are annealed into a quadruplex motif by heating at 95° C. in the presence of potassium ions in a hot water bath for approximately five minutes, then allowing the solution to slowly come to room temperature. In a fluorescence cell, an emission scan of 1 μM of compound in 1 mL of Tris Buffer is taken (Varian Cary Eclipse, Walnut Creek, Calif.) with appropriate parameters based on the excitation wavelength, an excitation slit width of 5 nm, and an emission slit width of 5 nm. Then 0.05 μM of DNA is titrated into the solution and scanned under the same conditions after each addition. The solution is titrated to saturation, at which the change in fluorescence intensity is nearly zero.
(§8) Due to the highly stabilized parallel quadruplex structure of c-Myc, thermal melting could not be considered for this sequence. Thus, fluorescence can be used to measure binding affinity towards the two quadruplex structures. […] Fluorescence enhancement, or the fluorescence intensity of the bound ligand divided by that of the free ligand, was considered in evaluating binding.

c-Myc quadruplex DNA = assay: Fluorescence titration with c-Myc quadruplex; conditions: fluorescence intensity of bound ligand divided by that of free ligand
Text: as §6, §7, §8

| SMILES | Selectivity for quadruplex over duplex DNA by thermal melting [1] | Change in Thermal Melting Points, Human Telomere (HT), 1:1 [1] | Change in Thermal Melting Points, Human Telomere (HT), 2:1 [1] | Change in Thermal Melting Points, Human Telomere (HT), 4:1 [1] | Change in Thermal Melting Points, Human Telomere (HT), 6:1 [1] | Change in Thermal Melting Points, Duplex, 1:1 (Duplex DNA) | Change in Thermal Melting Points, Duplex, 2:1 (Duplex DNA) | Change in Thermal Melting Points, Duplex, 4:1 (Duplex DNA) | Change in Thermal Melting Points, Duplex, 6:1 (Duplex DNA) | Fluorescence Enhancement, HT [2] | Fluorescence Enhancement, c-Myc (c-Myc quadruplex DNA) | Thermal Melting (Δ° C.), Quadruplex DNA, 1:1 ratio [1] | Thermal Melting (Δ° C.), Quadruplex DNA, 1:2 ratio [1] | Thermal Melting (Δ° C.), Quadruplex DNA, 1:4 ratio [1] | Thermal Melting (Δ° C.), Quadruplex DNA, 1:6 ratio [1] | Thermal Melting (Δ° C.), Duplex DNA, 1:1 ratio (Duplex DNA) | Thermal Melting (Δ° C.), Duplex DNA, 1:2 ratio (Duplex DNA) | Thermal Melting (Δ° C.), Duplex DNA, 1:4 ratio (Duplex DNA) | Thermal Melting (Δ° C.), Duplex DNA, 1:6 ratio (Duplex DNA) |
| --- | --- | --- | --- | --- | --- | --- | --- | --- | --- | --- | --- | --- | --- | --- | --- | --- | --- | --- | --- |
| CC1(C)C(=CC=CC2=[N+](CCC[N+](C)(C)C)c3ccccc3C2(C)C)N(CCC[N+](C)(C)C)c2ccccc21.[Br-].[Br-].[Br-] [MH4 (26)] | selectively bind to quadruplex DNA with little or no binding to duplex DNA | 1.6 | 4.1 | 8.7 | 13.7 | 0 | 0.9 | −0.2 | 1.8 | 1.68 | 7.74 | – | – | – | – | – | – | – | – |
| CC1(C)C(/C=C/C(=C/C=C2\N(CCC[N+](C)(C)C)c3ccccc3C2(C)C)c2ccncc2)=[N+](CCC[N+](C)(C)C)c2ccccc21 [SP-2-36] | – | – | – | – | – | – | – | – | – | – | – | 0.9 +/− 0.1 °C | 1.4 +/− 0.2 °C | 3.5 +/− 0.8 °C | 4.4 +/− 0.5 °C | 0.2 +/− 0.3 °C | 0.5 +/− 0.5 °C | 0.5 +/− 0.3 °C | 0.6 +/− 0.3 °C |
| CC1(C)C(/C=C/C(Cl)=C/C=C2\N(CCC[N+](C)(C)C)c3ccc(F)cc3C2(C)C)=[N+](CCC[N+](C)(C)C)c2ccc(F)cc21 [T4] | – | – | – | – | – | – | – | – | – | – | – | 1.6 +/− 0.2 °C | 3.3 +/− 0.4 °C | 8.0 +/− 0.7 °C | 10.7 +/− 0.7 °C | 0.4 +/− 0.4 °C | 0.5 +/− 0.4 °C | 0.9 +/− 0.5 °C | 1.2 +/− 0.7 °C |
| CC1(C)C(=CC=CC2=[N+](CCC[N+](C)(C)C)c3ccc(Cl)cc3C2(C)C)N(CCC[N+](C)(C)C)c2ccc(Cl)cc21.[Br-].[Br-].[Br-] [A-138 (17)] | selectively bind to quadruplex DNA with little or no binding to duplex DNA | 3.0 | 7.0 | 14.6 | – | 0.0 | 0.0 | −1.0 | – | 2.7 | 5.4 | – | – | – | – | – | – | – | – |
| CCCCn1/c(=C/C=C/C2=[N+](CCC[N+](C)(C)C)c3ccccc3C2(C)C)c2cccc3cccc1c32 [ZK-14] | bind quite strongly to the quadruplex with excellent selectivity | – | – | – | – | – | – | – | – | – | – | 1.9 +/− 0.3 °C | 7.7 +/− 1.1 °C | 20.4 +/− 1.0 °C | 26.0 +/− 0.5 °C | 0.6 +/− 0.1 °C | 0.8 +/− 0.3 °C | 2.7 +/− 0.1 °C | 2.8 +/− 0.3 °C |
| CC1(C)C(=CC=CC2=[N+](CCC[N+](C)(C)C)c3ccc(S(=O)(=O)[O-])cc3C2(C)C)N(CCC[N+](C)(C)C)c2ccc(S(=O)(=O)[O-])cc21.[Br-] [MH2 (31)] | – | 1.5 | 1.1 | 0.6 | 1.2 | – | – | – | – | – | – | – | – | – | – | – | – | – | – |
| CC1(C)C(/C=C/C(Cl)=C/C=C2\N(CCC[N+](C)(C)C)c3ccccc3C2(C)C)=[N+](CCC[N+](C)(C)C)c2ccccc21.[Br-].[Br-].[Br-] [A-20 (42)] | selectively bind to quadruplex DNA with little or no binding to duplex DNA | 2.6 | 6.0 | 12.2 | 13.2 | 0 | 0.9 | 0.9 | 2.8 | 1.74 | 3.58 | – | – | – | – | – | – | – | – |
| CC1(C)C(/C=C/C(Br)=C/C=C2\N(CCC[N+](C)(C)C)c3ccc(F)cc3C2(C)C)=[N+](CCC[N+](C)(C)C)c2ccc(F)cc21 [T5] | bind quite strongly to the quadruplex with excellent selectivity | – | – | – | – | – | – | – | – | – | – | 2.7 +/− 0.3 °C | 6.2 +/− 0.4 °C | 13.3 +/− 0.4 °C | 16.9 +/− 0.6 °C | 0.1 +/− 0.2 °C | 0.8 +/− 0.4 °C | 0.8 +/− 0.4 °C | 0.9 +/− 0.4 °C |
